Consider eight compounds from patent EP2695874A1, “Myrtucommulone analogues” (Universität des Saarlandes, priority 2012, dated 2014).

The target of one assay is T1, mPGES-1 (Homo sapiens, UniProt O14684).
T1 construct: Determination of PGE2 synthase activity in microsomes of A549 cells; endogenous in cells; host or cells: A549 cells (microsomal membranes)
T1 sequence (O14684 1-152): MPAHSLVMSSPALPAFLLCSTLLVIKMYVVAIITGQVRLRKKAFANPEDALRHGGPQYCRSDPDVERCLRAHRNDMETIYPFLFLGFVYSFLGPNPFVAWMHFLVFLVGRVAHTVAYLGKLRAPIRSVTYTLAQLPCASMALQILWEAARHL
Put plainly: Determination of PGE2 synthase activity in microsomes of A549 cells. Format: biochemical. The note with it: PGH2 substrate, 15 min preincubation at 4°C, read-out: mPGES-1 (IC50 in µmol l^-1). How it is done: Example 9 - Determination of PGE2 synthase activity in microsomes of A549 cells
(A. Koeberle, F. Pollastro, H. Northoff and O. Werz, Br. J. Pharmacol. 2009, 156, 952-961.)
Microsomal membranes were diluted in potassium phosphate buffer (0.1 mol·1^-1, pH 7.4) containing 2.5 mmol·l^-1 glutathione.
Test compounds or vehicle were added, and after 15 min at 4°C the reaction ([…]) was initiated by addition of PGH2 ([…], final concentration). After 1 min at 4°C, the reaction was terminated by using stop solution (100 ml; 40 mmol·l^-1 FeCl2, 80 mmol·l^-1 citric acid and 10 mmol·l^-1 of 11b-PGE2). PGE2 was separated by solid phase extraction on reversed phase (RP)-C18 material by using acetonitrile (200 ml) as eluent, and analysed by RP-HPLC (30% acetonitrile in water + 0.007% TFA (v,v), Nova-Pak® C18 column, 5 x 100 mm, 4 mm particle size, flow rate 1 m-·min^-1) with UV detection at 195 nm. 11b-PGE2 was used as internal standard to quantify PGE2 product formation by integration of the area under the peaks.

The target of assay [1] is T2, 5-LO (Homo sapiens, UniProt P09917).
T2 sequence (P09917 1-674): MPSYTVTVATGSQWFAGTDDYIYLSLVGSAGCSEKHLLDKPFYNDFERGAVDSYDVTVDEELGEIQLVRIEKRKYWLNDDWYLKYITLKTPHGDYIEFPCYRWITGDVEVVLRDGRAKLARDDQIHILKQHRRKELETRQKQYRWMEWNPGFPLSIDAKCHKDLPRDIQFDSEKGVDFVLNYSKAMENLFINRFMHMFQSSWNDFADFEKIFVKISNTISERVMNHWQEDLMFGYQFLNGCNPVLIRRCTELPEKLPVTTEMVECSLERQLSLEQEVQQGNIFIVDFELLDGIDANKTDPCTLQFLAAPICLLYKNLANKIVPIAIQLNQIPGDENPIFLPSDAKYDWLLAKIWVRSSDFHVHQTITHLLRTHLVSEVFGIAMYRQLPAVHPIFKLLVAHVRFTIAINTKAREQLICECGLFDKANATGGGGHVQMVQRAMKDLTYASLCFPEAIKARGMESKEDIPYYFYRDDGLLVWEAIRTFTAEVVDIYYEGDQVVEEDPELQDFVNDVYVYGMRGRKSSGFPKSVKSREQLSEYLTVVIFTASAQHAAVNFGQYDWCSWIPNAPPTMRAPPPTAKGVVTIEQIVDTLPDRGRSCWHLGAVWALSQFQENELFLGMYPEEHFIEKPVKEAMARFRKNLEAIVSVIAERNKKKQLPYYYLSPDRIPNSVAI
Put plainly: 5-LO product formation of purified 5-LO enzyme (cell-free assay). The class given is biochemical. The note with it: 10 µM AA, 2 mM CaCl2, read-out: 5-LO cell-free assay (IC50 in µmol l^-1). The method, then: (§1) To assay 5- and 15-lipoxygease (LO) product formation in intact cells, 7.5 x 10^6 freshly isolated PMNLs were finally resuspended in 1 ml of PGC buffer. After preincubation with the test compounds for 10 min at 37°C, the reaction was started by the addition of 1 µM ionomycin plus 20 µM AA. After 10 min at 37°C, the reaction was stopped with 1 ml of methanol and 30 µl of 1 N HCl, and 200 ng of prostaglandin B1 and 500 µl of PBS were added. Formed AA metabolites were extracted and analyzed by HPLC. To determine product formation of purified 5-LO enzyme, 5-LO protein (0.1 µg in 10 µl) was added to 990 µl of PBS containing 1 mM EDTA and 1 mM ATP on ice and the indicated compounds were added. After 5 to 10 min on ice, the samples were preincubated for 30 s at 37°C and CaCl2 and AA (2 mM and 10 µM, respectively) were added to start the 5-LO reaction. After 10 min, the incubation was terminated and 5-LO product formation was determined as described for the intact cells.

For assay [2], the target named is T2, 5-LO. Put plainly: 5-LO product formation in intact PMNLs (cell-based assay). To be noted: 1 µM ionomycin plus 20 µM AA, read-out: 5-LO cell-based assay (IC50 in µmol l^-1). How it is done: as §1
For another assay, the system named is Cell lines. Put plainly: Determination of cell viability by MTT assay (apoptose induction). The class given is cell-based. To be noted: cell line not given, read-out: Apoptose induction (EC50 in µmol l^-1). How it is done: Example 11 - Determination of cell viability by MTT assay
(I. Tretiakova, D. Blaesius, L. Maxia, S. Wesselborg, K. Schulze-Osthoff, J CinatlJr., M. Michaelis, O. Werz, Apoptosis 2008, 13, 119-131.)
Cell viability was assessed using the MTT assay. Cell lines were incubated at 37°C and 5% CO2 atmosphere with the indicated additives for 5 days. PBMC were treated for 40 h and in some experiments, MM6 cells were only treated for 24 h. DMSO was used as solvent never exceeding 0.5% (vol/vol). Then, MTT reagent was added for 4 h. Thereafter, 100 II SDS solution (20% SDS in a 1:1 (vol by vol) dimethylformamide/ water solution) was added for 4 h. Plates were read on a multiwell scanning spectrophotometer (Victor3 plate reader, PerkinElmer, Rodgau-Juegesheim, Germany) at a wavelength of 620 nm and a reference wavelength of 690 nm. Induction of cell death was determined as the relative reduction of the optical density.
(In general: Formazan colour is commonly taken as a measure of viable cells.)

Where only a bound is given, the exact number is not on record here.

As usually defined, the IC50 is the concentration at which inhibition is half-maximal. Broadly, the EC50 is the concentration that produces a half-maximal response. On to `CC(C)CC(=O)c1c(O)c(C(C2=C(O)c3ccccc3C2=O)c2ccccc2)c(O)c(C(C2=C(O)c3ccccc3C2=O)c2ccccc2)c1O` (racemic) [(If), 2,2'-(2,4,6-Trihydroxy-5-(3-methylbutanoyl)-1,3-phenylene)bis(phenylmethylene)bis(3-hydroxy-1H-inden-1-one)], for which the IC50 at mPGES-1 is 190 nM; at 5-LO [1], 460 nM; on 5-LO [2], 690 nM. The half-maximal effective concentration (EC50) in the assay with Cell lines was over 30000 nM.
In the same order, the values of `O=C1C(C(c2ccccc2)c2c(O)c(C(=O)c3ccccc3)c(O)c(C(C3=C(O)c4ccccc4C3=O)c3ccccc3)c2O)=C(O)c2ccccc21` (racemic) [(Ih), 2,2'-(5-Benzoyl-2,4,6-trihydroxy-1,3-phenylene)bis(phenylmethylene)bis(3-hydroxy-1H-inden-1-one)] are 330 nM, 2990 nM, 840 nM and over 30000 nM.
Regarding `CC(C)C(=O)c1c(O)c(C(C2=C(O)c3ccccc3C2=O)c2ccccc2)c(O)c(C(C2=C(O)c3ccccc3C2=O)c2ccccc2)c1O` (racemic) [Compound (Ie), 2,2'-(2,4,6-Trihydroxy-5-isobutyryl-1,3-phenylene)bis(phenylmethylene)bis(3-hydroxy-1H-inden-1-one)], the IC50 at mPGES-1 stood at 550 nM; at 5-LO [1], 730 nM; on 5-LO [2], 620 nM. The EC50 with Cell lines is over 30000 nM.
For `CCCCCC(=O)c1c(O)c(C(C2=C(O)c3ccccc3C2=O)c2ccccc2)c(O)c(C(C2=C(O)c3ccccc3C2=O)c2ccccc2)c1O` (racemic) [Compound (Ig), 2,2'-(5-Hexanoyl-2,4,6-trihydroxy-1,3-phenylene)bis(phenylmethylene)bis(3-hydroxy-1H-inden-1-one)], the IC50 on mPGES-1 was found to be 390 nM; on 5-LO [1] it was 1100 nM; at 5-LO [2], 2090 nM. Also, the EC50 in the assay on Cell lines was over 30000 nM.
For `CC(C)C(=O)c1c(O)c(C(C2=C(O)c3ccccc3C2=O)C(C)C)c(O)c(C(C2=C(O)c3ccccc3C2=O)C(C)C)c1O` (centres unmarked) [Compound (Ia), 2,2'-(1,1'-(2,4,6-Trihydroxy-5-isobutyryl-1,3-phenylene)bis(2-methylpropane-1,1-diyl))bis(3-hydroxy-1H-inden-1-one)], the IC50 at mPGES-1 was 300 nM; at 5-LO [1], 2800 nM; on 5-LO [2], 6700 nM. The EC50 with Cell lines is over 30000 nM.
Turning to `CCCCCC(=O)c1c(O)c(C(C2=C(O)c3ccccc3C2=O)C(C)C)c(O)c(C(C2=C(O)c3ccccc3C2=O)C(C)C)c1O` (centres unmarked) [Compound (Ib), 2,2'-(1,1'-(5-Hexanoyl-2,4,6-trihydroxy-1,3-phenylene)bis(2-methylpropane-1,1-diyl))bis(3-hydroxy-1H-inden-1-one)], the values for the concentration for half-maximal inhibition (IC50) on mPGES-1, on 5-LO [1] and at 5-LO [2] were 80 nM, 1740 nM and 1460 nM, respectively. In addition, in the assay on Cell lines, the 50% effective concentration (EC50) is over 30000 nM.
Consider `CC(C)CC(=O)c1c(O)c(C(C2=C(O)c3ccccc3C2=O)C(C)C)c(O)c(C(C2=C(O)c3ccccc3C2=O)C(C)C)c1O` (centres unmarked) [Compound (Ic), 2,2'-(1,1'-(2,4,6-Trihydroxy-5-(3-methylbutanoyl)-1,3-phenylene)bis(2-methylpropane-1,1-diyl))bis(3-hydroxy-1H-inden-1-one)], for which the IC50 was 180 nM on mPGES-1, 300 nM at 5-LO [1] and 1040 nM on 5-LO [2]. The EC50 in the assay on Cell lines is over 30000 nM.
In the case of `CC(C)C(C1=C(O)c2ccccc2C1=O)c1c(O)c(C(=O)c2ccccc2)c(O)c(C(C2=C(O)c3ccccc3C2=O)C(C)C)c1O` (centres unmarked) [Compound (Id), 2,2'-(1,1'-(5-Benzoyl-2,4,6-trihydroxy-1,3-phenylene)bis(2-methylpropane-1,1-diyl))bis(3-hydroxy-1H-inden-1-one)], the half-inhibitory concentration (IC50) on mPGES-1 was 680 nM; at 5-LO [1], 6860 nM; on 5-LO [2], 3230 nM. In the assay with Cell lines, the concentration for a half-maximal effect (EC50) was over 30000 nM.
